{
  "source": "patent US4277497A",
  "about": "“Analgesic 2-(M-benzoylphenoxy)-propionic acid derivatives” (Unicler, priority 1978, dated 1981)",
  "key": {"[1]": {"assay": "Oral toxicity in mice (Miller and Tainter's method)", "format": "in vivo", "conditions": "mouse, in vivo, po, read-out: LD50 toxicity orally", "experimental": "(§1) The toxicity of the compounds according to the invention administered orally was also determined in mice by Miller and Tainter's method."}, "carrageenin oedema": {"tested_on": "carrageenin oedema", "assay": "Carrageenin oedema test (Winter and Risley's technique), anti-inflammatory activity", "format": "in vivo, rats (Wistar strain, female)", "conditions": "rats, inhibition of oedema compared with control batch", "experimental": "The anti-inflammatory activity was measured by the carrageenin oedema test according to Winter and Risley's technique (Proc. Soc. Exp. Biol. 111, 544, 1962). The test was carried out on batches of 10 Wistar strain female rats weighing 180 g, which receives the products in an amount of 1/10 of the LD50. The anti-inflammatory activity corresponds to the inhibition of the oedema in the treated batch compared with the control batch."}, "[2]": {"tested_on": "painful syndrome produced in mice by phenylbenzoquinone", "assay": "Analgesic test of Siegmund, Cadmus and Lu (phenylbenzoquinone-induced painful syndrome, stretching)", "format": "in vivo, mice (Swiss strain)", "conditions": "oral; for Analgesic activity at 1/10 of LD50: dose 1/10 of LD50, 30 minutes before phenylbenzoquinone; for Analgesic activity at 1/40 of LD50: dose 1/40 of LD50, 30 minutes before phenylbenzoquinone", "experimental": "They were in particular subjected to the analgesic test of Siegmund, Cadmus and Lu (Proc. Soc. Exp. Biol. Med. 95, 729, 1957) according to which a characteristic painful syndrome is produced in mice by injecting phenylbenzoquinone.\nThe animals used are Swiss strain mice, weighing 20±2 grams.\nThe animals are distributed in random batches of 10, but are tested individually. Each test comprises at least two batches.\na control batch that receives the solvent and phenylbenzoquinone\na batch treated with the product being investigated.\nThe investigated products are administered orally, in an amount of 1/10 or 1/40 of the LD50, 30 minutes before the injection of the irritant agent. Each mouse then receives 0.25 ml of a 0.02% phenylbenzoquinone solution intraperitoneally.\nThe pain syndrome produced by the injection of phenylbenzoquinone causes the animals to stretch their stomach and rear paws, and at the crisis point of the reaction the animal's flanks are very contracted. 5 minutes after the injection of the irritant, the stretching is counted for a period of 10 minutes.\nThe average number of stretchings is calculated for each batch. The activity of the product under investigations is determined by comparison with the average number of stretchings in the treated animals (N) and the average number of stretchings in the control animals (N'). [formula]\nThe statistical significance of the result thus obtained is evaluated by Fisher's non-parametric test."}, "mice": {"tested_on": "mice", "assay": "Oral toxicity in mice (Miller and Tainter's method)", "format": "in vivo", "experimental": "as §1"}},
  "note": "Where a name gives a salt, the structure may show the parent alone.",
  "data": [
    {"smiles": "CCOC(=O)C(C)Oc1cccc(C(=O)c2ccc(Cl)cc2)c1C", "note": "(stereo not shown) [Ethyl ester of Example 6]", "values": [
      {"measurement": "LD50", "setting": "[1]", "value": 1500, "unit": "mg/kg"},
      {"measurement": "Anti-inflammatory activity at 1/10 of LD50", "setting": "carrageenin oedema", "value": 62, "unit": "%"},
      {"measurement": "Analgesic activity at 1/10 of LD50", "setting": "[2]", "value": 77, "unit": "%"},
      {"measurement": "Analgesic activity at 1/40 of LD50", "setting": "[2]", "value": 73, "unit": "%"}
    ]},
    {"smiles": "CC(Oc1cccc(C(=O)c2ccccc2)c1)C(=O)O", "note": "(stereo not shown) [Example 1]", "values": [
      {"measurement": "LD50", "setting": "[1]", "value": 1000, "unit": "mg/kg"},
      {"measurement": "Anti-inflammatory activity at 1/10 of LD50", "setting": "carrageenin oedema", "value": 17, "unit": "%"},
      {"measurement": "Analgesic activity at 1/10 of LD50", "setting": "[2]", "value": 86, "unit": "%"},
      {"measurement": "Analgesic activity at 1/40 of LD50", "setting": "[2]", "value": 84, "unit": "%"}
    ]},
    {"smiles": "Cc1c(OC(C)C(=O)O)cccc1C(=O)c1ccccc1", "note": "(stereo not shown) [Example 2]", "values": [
      {"measurement": "LD50", "setting": "[1]", "value": 750, "unit": "mg/kg"},
      {"measurement": "Anti-inflammatory activity at 1/10 of LD50", "setting": "carrageenin oedema", "value": 33, "unit": "%"},
      {"measurement": "Analgesic activity at 1/10 of LD50", "setting": "[2]", "value": 73, "unit": "%"}
    ]},
    {"smiles": "CC(Oc1cccc(C(=O)c2ccc(Cl)cc2Cl)c1)C(=O)O", "note": "(stereo not shown) [Example 3]", "values": [
      {"measurement": "LD50", "setting": "[1]", "value": 1500, "unit": "mg/kg"},
      {"measurement": "Anti-inflammatory activity at 1/10 of LD50", "setting": "carrageenin oedema", "value": 18, "unit": "%"},
      {"measurement": "Analgesic activity at 1/10 of LD50", "setting": "[2]", "value": 98.5, "unit": "%"},
      {"measurement": "Analgesic activity at 1/40 of LD50", "setting": "[2]", "value": 71, "unit": "%"}
    ]},
    {"smiles": "CC(Oc1cccc(C(=O)c2ccc(Br)cc2)c1)C(=O)O", "note": "(stereo not shown) [Example 4]", "values": [
      {"measurement": "LD50", "setting": "[1]", "value": 1000, "unit": "mg/kg"},
      {"measurement": "Anti-inflammatory activity at 1/10 of LD50", "setting": "carrageenin oedema", "value": 45, "unit": "%"},
      {"measurement": "Analgesic activity at 1/10 of LD50", "setting": "[2]", "value": 84, "unit": "%"},
      {"measurement": "Analgesic activity at 1/40 of LD50", "setting": "[2]", "value": 58, "unit": "%"}
    ]},
    {"smiles": "CC(Oc1cccc(C(=O)c2ccc(F)cc2)c1)C(=O)O", "note": "(stereo not shown) [Example 5]", "values": [
      {"measurement": "LD50", "setting": "[1]", "value": 1500, "unit": "mg/kg"},
      {"measurement": "Anti-inflammatory activity at 1/10 of LD50", "setting": "carrageenin oedema", "value": 26, "unit": "%"},
      {"measurement": "Analgesic activity at 1/10 of LD50", "setting": "[2]", "value": 89, "unit": "%"},
      {"measurement": "Analgesic activity at 1/40 of LD50", "setting": "[2]", "value": 63, "unit": "%"}
    ]},
    {"smiles": "Cc1c(OC(C)C(=O)O)cccc1C(=O)c1ccc(Cl)cc1", "note": "(stereo not shown) [Example 6]", "values": [
      {"measurement": "LD50", "setting": "[1]", "value": 750, "unit": "mg/kg"},
      {"measurement": "Anti-inflammatory activity at 1/10 of LD50", "setting": "carrageenin oedema", "value": 46, "unit": "%"},
      {"measurement": "Analgesic activity at 1/10 of LD50", "setting": "[2]", "value": 94, "unit": "%"},
      {"measurement": "Analgesic activity at 1/40 of LD50", "setting": "[2]", "value": 83, "unit": "%"}
    ]},
    {"smiles": "Cc1ccc(C(=O)c2ccc(Cl)cc2)cc1OC(C)C(=O)O", "note": "(stereo not shown) [Example 7]", "values": [
      {"measurement": "LD50", "setting": "[1]", "value": 500, "unit": "mg/kg"},
      {"measurement": "Anti-inflammatory activity at 1/10 of LD50", "setting": "carrageenin oedema", "value": 21, "unit": "%"},
      {"measurement": "Analgesic activity at 1/10 of LD50", "setting": "[2]", "value": 81, "unit": "%"}
    ]},
    {"smiles": "Cc1ccc(C(=O)c2cccc(OC(C)C(=O)O)c2)cc1", "note": "(stereo not shown) [Example 8]", "values": [
      {"measurement": "LD50", "setting": "[1]", "value": 1500, "unit": "mg/kg"},
      {"measurement": "Anti-inflammatory activity at 1/10 of LD50", "setting": "carrageenin oedema", "value": 40, "unit": "%"},
      {"measurement": "Analgesic activity at 1/10 of LD50", "setting": "[2]", "value": 84, "unit": "%"},
      {"measurement": "Analgesic activity at 1/40 of LD50", "setting": "[2]", "value": 86, "unit": "%"}
    ]},
    {"smiles": "Cc1c(OC(C)C(=O)O)cccc1C(=O)c1ccc(Cl)cc1Cl", "note": "(stereo not shown) [Example 9]", "values": [
      {"measurement": "LD50", "setting": "[1]", "value": 750, "unit": "mg/kg"},
      {"measurement": "Analgesic activity at 1/10 of LD50", "setting": "[2]", "value": 64, "unit": "%"}
    ]},
    {"smiles": "Cc1ccc(C(=O)c2cccc(OC(C)C(=O)O)c2C)cc1", "note": "(stereo not shown) [Example 10]", "values": [
      {"measurement": "LD50", "setting": "[1]", "value": 600, "unit": "mg/kg"},
      {"measurement": "Anti-inflammatory activity at 1/10 of LD50", "setting": "carrageenin oedema", "value": 32, "unit": "%"},
      {"measurement": "Analgesic activity at 1/10 of LD50", "setting": "[2]", "value": 92, "unit": "%"}
    ]},
    {"smiles": "Cc1ccc(C(=O)c2cccc(OC(C)C(=O)O)c2)c(C)c1", "note": "(stereo not shown) [Example 11]", "values": [
      {"measurement": "LD50", "setting": "[1]", "value": 2000, "unit": "mg/kg"},
      {"measurement": "Anti-inflammatory activity at 1/10 of LD50", "setting": "carrageenin oedema", "value": 41, "unit": "%"},
      {"measurement": "Analgesic activity at 1/10 of LD50", "setting": "[2]", "value": 97, "unit": "%"},
      {"measurement": "Analgesic activity at 1/40 of LD50", "setting": "[2]", "value": 31, "unit": "%"}
    ]},
    {"smiles": "CC(Oc1cccc(C(=O)c2ccccc2)c1)C(=O)O", "note": "(stereo not shown) [Lysine salt of Ex. 1]", "values": [
      {"measurement": "LD50 toxicity orally", "setting": "mice", "value": 2000, "unit": "mg/kg"},
      {"measurement": "Anti-inflammatory activity at 1/10 of LD50", "setting": "carrageenin oedema", "value": 50, "unit": "%"},
      {"measurement": "Analgesic activity at 1/10 of LD50", "setting": "[2]", "value": 97, "unit": "%"},
      {"measurement": "Analgesic activity at 1/40 of LD50", "setting": "[2]", "value": 86, "unit": "%"}
    ]},
    {"smiles": "Cc1c(OC(C)C(=O)O)cccc1C(=O)c1ccc(Cl)cc1", "note": "(stereo not shown) [Lysine salt of Ex. 6]", "values": [
      {"measurement": "LD50 toxicity orally", "setting": "mice", "value": 1000, "unit": "mg/kg"},
      {"measurement": "Anti-inflammatory activity at 1/10 of LD50", "setting": "carrageenin oedema", "value": 57, "unit": "%"},
      {"measurement": "Analgesic activity at 1/10 of LD50", "setting": "[2]", "value": 80, "unit": "%"},
      {"measurement": "Analgesic activity at 1/40 of LD50", "setting": "[2]", "value": 89, "unit": "%"}
    ]},
    {"smiles": "Cc1ccc(C(=O)c2cccc(OC(C)C(=O)O)c2)cc1", "note": "(stereo not shown) [Lysine salt of Ex. 8]", "values": [
      {"measurement": "LD50 toxicity orally", "setting": "mice", "value": 2000, "unit": "mg/kg"},
      {"measurement": "Anti-inflammatory activity at 1/10 of LD50", "setting": "carrageenin oedema", "value": 30, "unit": "%"},
      {"measurement": "Analgesic activity at 1/10 of LD50", "setting": "[2]", "value": 87, "unit": "%"},
      {"measurement": "Analgesic activity at 1/40 of LD50", "setting": "[2]", "value": 36, "unit": "%"}
    ]}
  ]
}
